{"source": "patent US9283222B2", "about": "(priority 2006, dated 2016)", "target": "Recombinant Human Poly(ADP-Ribose) Polymerase (PARP), PARP-1 (Homo sapiens (Human), UniProt P09874)", "sequence (P09874 whole entry)": "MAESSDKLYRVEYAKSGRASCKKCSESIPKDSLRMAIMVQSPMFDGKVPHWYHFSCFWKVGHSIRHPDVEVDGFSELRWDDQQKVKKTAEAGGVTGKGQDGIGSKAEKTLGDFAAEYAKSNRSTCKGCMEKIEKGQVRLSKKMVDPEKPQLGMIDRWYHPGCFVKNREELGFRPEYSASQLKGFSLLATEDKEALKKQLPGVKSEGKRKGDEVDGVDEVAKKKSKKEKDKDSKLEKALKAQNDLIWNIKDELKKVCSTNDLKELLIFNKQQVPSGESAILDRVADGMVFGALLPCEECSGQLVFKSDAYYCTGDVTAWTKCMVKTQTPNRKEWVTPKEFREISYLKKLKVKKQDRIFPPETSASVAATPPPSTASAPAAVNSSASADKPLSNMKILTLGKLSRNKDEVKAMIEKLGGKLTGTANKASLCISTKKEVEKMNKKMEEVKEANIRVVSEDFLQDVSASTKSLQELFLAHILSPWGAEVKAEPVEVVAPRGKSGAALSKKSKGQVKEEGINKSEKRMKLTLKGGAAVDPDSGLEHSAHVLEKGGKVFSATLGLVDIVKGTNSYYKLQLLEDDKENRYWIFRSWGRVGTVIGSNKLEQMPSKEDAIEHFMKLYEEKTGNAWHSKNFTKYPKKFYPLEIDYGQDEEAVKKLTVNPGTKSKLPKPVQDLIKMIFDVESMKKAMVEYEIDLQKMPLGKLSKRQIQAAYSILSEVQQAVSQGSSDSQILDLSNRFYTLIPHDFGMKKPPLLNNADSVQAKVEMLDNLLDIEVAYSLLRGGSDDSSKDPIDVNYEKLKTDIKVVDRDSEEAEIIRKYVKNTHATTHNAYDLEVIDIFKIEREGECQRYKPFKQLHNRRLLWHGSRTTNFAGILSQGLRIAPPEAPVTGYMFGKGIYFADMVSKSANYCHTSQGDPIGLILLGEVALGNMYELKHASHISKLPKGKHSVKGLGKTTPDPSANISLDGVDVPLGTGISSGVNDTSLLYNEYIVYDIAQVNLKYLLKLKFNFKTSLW", "conditions": "read-out: PARP-1 (Ki)", "key": {"[1]": {"conditions": "Table 1, text calls the values EC50s"}}, "note": "Like-named read-outs stand apart in the source and are kept apart here.", "data": [{"smiles": "N[C@H]1CCCC[C@@H]1NC(=O)c1cc(Cc2n[nH]c(=O)c3c2NCCC3)ccc1F", "note": "[Example 740, N-[(1S,2S)-2-aminocyclohexyl]-2-fluoro-5-[(5-oxo-1,2,3,4,5,6-hexahydropyrido[2,3-d]pyridazin-8-yl)methyl]benzamide]", "values": [{"measurement": "Ki", "setting": "[1]", "value": 52, "unit": "nM"}]}, {"smiles": "COc1ccc(S(=O)(=O)N2CCN(C(=O)c3cc(Cc4n[nH]c(=O)c5c4NCCC5)ccc3F)CC2)cc1", "note": "[Example 600, 8-[4-fluoro-3-({4-[(4-methoxyphenyl)sulfonyl]piperazin-1-yl}carbonyl)benzyl]-2,3,4,6-tetrahydropyrido[2,3-d]pyridazin-5(1H)-one]", "values": [{"measurement": "Ki", "setting": "[1]", "value": 0.7, "unit": "nM"}]}, {"smiles": "CC(C)c1ccc(C(=O)Nc2cccc(Cc3n[nH]c(=O)c4c3CCCC4)c2)cc1", "note": "[Example 186, 4-isopropyl-N-(3-((4-oxo-3,4,5,6,7,8-hexahydrophthalazin-1-yl)methyl)phenyl)benzamide]", "values": [{"measurement": "Ki", "setting": "[1]", "value": 160, "unit": "nM"}]}, {"smiles": "CN1CCN(C(=O)Nc2cc(Cc3n[nH]c(=O)c4c3CCCC4)ccc2F)CC1", "note": "[Example 584, N-{2-fluoro-5-[(4-oxo-3,4,5,6,7,8-hexahydrophthalazin-1-yl)methyl]phenyl}-4-methylpiperazine-1-carboxamide]", "values": [{"measurement": "Ki", "setting": "[1]", "value": 68, "unit": "nM"}]}, {"smiles": "O=C(CNC(=O)OCc1ccccc1)Nc1cccc(CCc2n[nH]c(=O)c3c2CCCC3)c1", "note": "[Example 320, benzyl 2-oxo-2-(3-(2-(4-oxo-3,4,5,6,7,8-hexahydrophthalazin-1-yl)ethyl)phenylamino)ethylcarbamate]", "values": [{"measurement": "Ki", "setting": "[1]", "value": 165, "unit": "nM"}]}, {"smiles": "O=C(c1ccccn1)N1CCN(C(=O)c2cc(Cc3n[nH]c(=O)c4c3NCCC4)ccc2F)CC1", "note": "[Example 665, 8-(4-fluoro-3-{[4-(pyridin-2-ylcarbonyl)piperazin-1-yl]carbonyl}benzyl)-2,3,4,6-tetrahydropyrido[2,3-d]pyridazin-5(1H)-one]", "values": [{"measurement": "Ki", "setting": "[1]", "value": 1.1, "unit": "nM"}]}, {"smiles": "O=C(c1ccc(-c2cc(CCc3n[nH]c(=O)c4c3CCCC4)ccc2F)cc1)N1CCOCC1", "note": "[Example 267, 4-(2-(6-fluoro-4′-(morpholin-4-ylcarbonyl)-1,1′-biphenyl-3-yl)ethyl)-5,6,7,8-tetrahydrophthalazin-1(2H)-one]", "values": [{"measurement": "Ki", "setting": "[1]", "value": 534, "unit": "nM"}]}, {"smiles": "O=C(c1cc(Cc2n[nH]c(=O)c3c2CCCC3)ccc1F)N1CCN(c2ccc(F)cc2)CC1", "note": "[Example 528, 4-(4-fluoro-3-{[4-(4-fluorophenyl)piperazin-1-yl]carbonyl}benzyl)-5,6,7,8-tetrahydrophthalazin-1(2H)-one]", "values": [{"measurement": "Ki", "setting": "[1]", "value": 4, "unit": "nM"}]}, {"smiles": "O=C(NC1CC1)c1cccc(-c2cc(CCc3n[nH]c(=O)c4c3CCCC4)ccc2F)c1", "note": "[Example 270, N-cyclopropyl-2′-fluoro-5′-(2-(4-oxo-3,4,5,6,7,8-hexahydrophthalazin-1-yl)ethyl)-1,1′-biphenyl-3-carboxamide]", "values": [{"measurement": "Ki", "setting": "[1]", "value": 487, "unit": "nM"}]}, {"smiles": "O=C(c1cc(Cc2n[nH]c(=O)c3c2CCCC3)ccc1F)N1CCN(C(=O)[C@@H]2CSCN2)CC1", "note": "[Example 727, 4-[4-fluoro-3-({4-[(4R)-1,3-thiazolidin-4-ylcarbonyl]piperazin-1-yl}carbonyl)benzyl]-5,6,7,8-tetrahydrophthalazin-1(2H)-one]", "values": [{"measurement": "Ki", "setting": "[1]", "value": 1.4, "unit": "nM"}]}, {"smiles": "O=C(c1ccc2[nH]cnc2c1)N1CCN(C(=O)c2cc(Cc3n[nH]c(=O)c4c3CCCC4)ccc2F)CC1", "note": "[Example 680, 4-(3-{[4-(1H-benzimidazol-5-ylcarbonyl)piperazin-1-yl]carbonyl}-4-fluorobenzyl)-5,6,7,8-tetrahydrophthalazin-1(2H)-one]", "values": [{"measurement": "Ki", "setting": "[1]", "value": 1.1, "unit": "nM"}]}, {"smiles": "Cc1cc(NC(=O)c2cccc(Cc3n[nH]c(=O)c4c3CCCC4)c2)ccc1F", "note": "[Example 341, N-(4-fluoro-3-methylphenyl)-3-((4-oxo-3,4,5,6,7,8-hexahydrophthalazin-1-yl)methyl)benzamide]", "values": [{"measurement": "Ki", "setting": "[1]", "value": 154, "unit": "nM"}]}, {"smiles": "O=C(NCc1cccs1)c1cccc(Cc2n[nH]c(=O)c3c2CCCC3)c1", "note": "[Example 309, 3-((4-oxo-3,4,5,6,7,8-hexahydrophthalazin-1-yl)methyl)-N-(thien-2-ylmethyl)benzamide]", "values": [{"measurement": "Ki", "setting": "[1]", "value": 29, "unit": "nM"}]}, {"smiles": "Cc1c(C(=O)Nc2cc(Cc3n[nH]c(=O)c4c3CCCC4)ccc2F)cnn1-c1ccccc1", "note": "[Example 454, N-(2-fluoro-5-((4-oxo-3,4,5,6,7,8-hexahydrophthalazin-1-yl)methyl)phenyl)-5-methyl-1-phenyl-1H-pyrazole-4-carboxamide]", "values": [{"measurement": "Ki", "setting": "[1]", "value": 16, "unit": "nM"}]}, {"smiles": "O=C(NC1CCN(C(=O)c2cc(Cc3n[nH]c(=O)c4c3NCCC4)ccc2F)CC1)c1ccco1", "note": "[Example 750, N-(1-{2-fluoro-5-[(5-oxo-1,2,3,4,5,6-hexahydropyrido[2,3-d]pyridazin-8-yl)methyl]benzoyl}piperidin-4-yl)-2-furamide]", "values": [{"measurement": "Ki", "setting": "[1]", "value": 1.1, "unit": "nM"}]}, {"smiles": "O=C(c1cc[nH]n1)N1CCCN(C(=O)c2cc(Cc3n[nH]c(=O)c4c3NCCC4)ccc2F)CC1", "note": "[Example 702, 8-(4-fluoro-3-{[4-(1H-pyrazol-3-ylcarbonyl)-1,4-diazepan-1-yl]carbonyl}benzyl)-2,3,4,6-tetrahydropyrido[2,3-d]pyridazin-5(1H)-one]", "values": [{"measurement": "Ki", "setting": "[1]", "value": 2.1, "unit": "nM"}]}, {"smiles": "NC(=O)C1(C(=O)Nc2cccc(Cc3n[nH]c(=O)c4c3CCCC4)c2)CC1", "note": "[Example 141]", "values": [{"measurement": "Ki", "setting": "[1]", "value": 77, "unit": "nM"}]}, {"smiles": "O=C(Nc1cccc(Cc2n[nH]c(=O)c3c2CCCC3)c1)c1cccc2ccccc12", "note": "[Example 230, N-(3-((4-oxo-3,4,5,6,7,8-hexahydrophthalazin-1-yl)methyl)phenyl)-1-naphthamide]", "values": [{"measurement": "Ki", "setting": "[1]", "value": 96, "unit": "nM"}]}, {"smiles": "O=C(OCc1ccccc1)N1CCN(C(=O)c2cc(Cc3n[nH]c(=O)c4c3NCCC4)ccc2F)CC1", "note": "[Example 613, benzyl 4-{2-fluoro-5-[(5-oxo-1,2,3,4,5,6-hexahydropyrido[2,3-d]pyridazin-8-yl)methyl]benzoyl}piperazine-1-carboxylate]", "values": [{"measurement": "Ki", "setting": "[1]", "value": 1.8, "unit": "nM"}]}, {"smiles": "CCNC(=O)c1cccc(Cc2n[nH]c(=O)c3c2CCCC3)n1", "note": "[Example 81, N-ethyl-6-((4-oxo-3,4,5,6,7,8-hexahydrophthalazin-1-yl)methyl)pyridine-2-carboxamide]", "values": [{"measurement": "Ki", "setting": "[1]", "value": 123, "unit": "nM"}]}, {"smiles": "O=C(CCc1ccccc1Cl)Nc1cccc(Cc2n[nH]c(=O)c3c2CCCC3)c1", "note": "[Example 168, 3-(2-chlorophenyl)-N-(3-((4-oxo-3,4,5,6,7,8-hexahydrophthalazin-1-yl)methyl)phenyl)propanamide]", "values": [{"measurement": "Ki", "setting": "[1]", "value": 127, "unit": "nM"}]}, {"smiles": "O=C(c1cnc2ccccc2c1)N1CCCN(C(=O)c2cc(Cc3n[nH]c(=O)c4c3NCCC4)ccc2F)CC1", "note": "[Example 688, 8-(4-fluoro-3-{[4-(quinolin-3-ylcarbonyl)-1,4-diazepan-1-yl]carbonyl}benzyl)-2,3,4,6-tetrahydropyrido[2,3-d]pyridazin-5(1H)-one]", "values": [{"measurement": "Ki", "setting": "[1]", "value": 2.4, "unit": "nM"}]}, {"smiles": "O=C(c1ccc(-c2cc(Cc3n[nH]c(=O)c4c3CCCC4)ccc2F)cc1)N1CCCC1", "note": "[Example 251, 4-((6-fluoro-4′-(pyrrolidin-1-ylcarbonyl)-1,1′-biphenyl-3-yl)methyl)-5,6,7,8-tetrahydrophthalazin-1(2H)-one]", "values": [{"measurement": "Ki", "setting": "[1]", "value": 446, "unit": "nM"}]}, {"smiles": "CN1CCN(C(=O)c2cccc(Cc3n[nH]c(=O)c4c3CCCC4)c2)CC1", "note": "[Example 435, 4-(3-((4-methylpiperazin-1-yl)carbonyl)benzyl)-5,6,7,8-tetrahydrophthalazin-1(2H)-one]", "values": [{"measurement": "Ki", "setting": "[1]", "value": 20, "unit": "nM"}]}, {"smiles": "O=C(c1cc(Cc2n[nH]c(=O)c3c2NCCC3)ccc1F)N1CCN(C(=O)N2CCOCC2)CC1", "note": "[Example 473, 8-(4-fluoro-3-((4-(morpholin-4-ylcarbonyl)piperazin-1-yl)carbonyl)benzyl)-2,3,4,6-tetrahydropyrido(2,3-d)pyridazin-5(1H)-one]", "values": [{"measurement": "Ki", "value": 2, "unit": "nM"}]}, {"smiles": "Cc1cncc(N2CCN(C(=O)c3cc(Cc4n[nH]c(=O)c5c4CCCC5)ccc3F)CC2)n1", "note": "[Example 499, 4-(4-fluoro-3-{[4-(6-methylpyrazin-2-yl)piperazin-1-yl]carbonyl}benzyl)-5,6,7,8-tetrahydrophthalazin-1(2H)-one]", "values": [{"measurement": "Ki", "setting": "[1]", "value": 1.6, "unit": "nM"}]}, {"smiles": "CNC(=O)c1ccc(Cc2n[nH]c(=O)c3c2CCCC3)s1", "note": "[Example 110, N-methyl-5-((4-oxo-3,4,5,6,7,8-hexahydrophthalazin-1-yl)methyl)thiophene-2-carboxamide]", "values": [{"measurement": "Ki", "setting": "[1]", "value": 372, "unit": "nM"}]}, {"smiles": "CC(C)NC(=O)Nc1cc(Cc2n[nH]c(=O)c3c2CCCC3)ccc1F", "note": "[Example 538, N-{2-fluoro-5-[(4-oxo-3,4,5,6,7,8-hexahydrophthalazin-1-yl)methyl]phenyl}-N′-isopropylurea]", "values": [{"measurement": "Ki", "setting": "[1]", "value": 374, "unit": "nM"}]}, {"smiles": "Cc1ccc(OCC(=O)Nc2cccc(Cc3n[nH]c(=O)c4c3CCCC4)c2)cc1C", "note": "[Example 163, 2-(3,4-dimethylphenoxy)-N-(3-((4-oxo-3,4,5,6,7,8-hexahydrophthalazin-1-yl)methyl)phenyl)acetamide]", "values": [{"measurement": "Ki", "setting": "[1]", "value": 35, "unit": "nM"}]}, {"smiles": "CCN(CCNC(=O)N1CCCC1)C(=O)c1cc(Cc2n[nH]c(=O)c3c2CCCC3)ccc1F", "note": "[Example 743, N-[2-(ethyl{2-fluoro-5-[(4-oxo-3,4,5,6,7,8-hexahydrophthalazin-1-yl)methyl]benzoyl}amino)ethyl]pyrrolidine-1-carboxamide]", "values": [{"measurement": "Ki", "setting": "[1]", "value": 2.7, "unit": "nM"}]}, {"smiles": "O=C(NN1CCCCCC1)c1cccc(Cc2n[nH]c(=O)c3c2CCCC3)c1", "note": "[Example 54, N-azepan-1-yl-3-((4-oxo-3,4,5,6,7,8-hexahydrophthalazin-1-yl)methyl)benzamide]", "values": [{"measurement": "Ki", "setting": "[1]", "value": 205, "unit": "nM"}]}, {"smiles": "O=c1[nH]nc(Cc2ccc(F)c(Br)c2)c2ncccc12", "note": "[Example 415]", "values": [{"measurement": "Ki", "setting": "[1]", "value": 3200, "unit": "nM"}]}, {"smiles": "O=C(Nc1ccc(F)cc1F)Nc1cc(Cc2n[nH]c(=O)c3c2CCCC3)ccc1F", "note": "[Example 541, N-(2,4-difluorophenyl)-N′-{2-fluoro-5-[(4-oxo-3,4,5,6,7,8-hexahydrophthalazin-1-yl)methyl]phenyl}urea]", "values": [{"measurement": "Ki", "setting": "[1]", "value": 71, "unit": "nM"}]}, {"smiles": "O=C(c1cc(Cc2n[nH]c(=O)c3c2NCCC3)ccc1F)N1CCCN(C(=O)[C@@H]2CSCN2)CC1", "note": "[Example 701, 8-[4-fluoro-3-({4-[(4R)-1,3-thiazolidin-4-ylcarbonyl]-1,4-diazepan-1-yl}carbonyl)benzyl]-2,3,4,6-tetrahydropyrido[2,3-d]pyridazin-5(1H)-one]", "values": [{"measurement": "Ki", "setting": "[1]", "value": 2.3, "unit": "nM"}]}, {"smiles": "O=C(c1cc(Cc2n[nH]c(=O)c3c2CCCC3)ccc1F)N1CCN(C(=O)C2CCCCC2)CC1", "note": "[Example 624, 4-(3-{[4-(cyclohexylcarbonyl)piperazin-1-yl]carbonyl}-4-fluorobenzyl)-5,6,7,8-tetrahydrophthalazin-1(2H)-one]", "values": [{"measurement": "Ki", "setting": "[1]", "value": 2.5, "unit": "nM"}]}, {"smiles": "CN(C(=O)c1cc(Cc2n[nH]c(=O)c3c2NCCC3)ccc1F)C1CCN(C(=O)c2cn[nH]c2)CC1", "note": "[Example 718, 2-fluoro-N-methyl-5-[(5-oxo-1,2,3,4,5,6-hexahydropyrido[2,3-d]pyridazin-8-yl)methyl]-N-[1-(1H-pyrazol-4-ylcarbonyl)piperidin-4-yl]benzamide]", "values": [{"measurement": "Ki", "setting": "[1]", "value": 2.6, "unit": "nM"}]}]}
